From patent US20150299125A1, “PRODRUG BIPYRIDYLAMINOPYRIDINES AS SYK INHIBITORS” (MERCK SHARP & DOHME CORP., priority 2012, published 2015)
≈ marks a conversion by molar mass, not a printed value. Like-named read-outs stand apart in the source and are kept apart here.

Legend:
[1] = biological target: T1, recombinant human GST-Syk (Homo sapiens, UniProt P43405); assay: Homogeneous Time-Resolved Fluorescence (HTRF) assay for the recombinant human Syk enzyme; assay type: biochemical; conditions: ATP 25 μM
T1 construct: purchased Carna Biosciences 08-176
Procedure, shortened: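 HTRF read-out, taken 30 min after adding 2 nM europium anti-pTyr antibody plus 70 nM streptavidin-APC in 40 mM EDTA/Tris pH 7.5, detects peptide phosphorylated by GST-tagged human Syk during a 45-min room-temperature reaction.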

[2] = Conversion of prodrug to parent in in vitro biorelevant gastrointestinal tract media; assay type: in vitro ADME; conditions: 37° C.; for Conversion in SGF, time: simulated gastric fluid
Protocol: Conversion of Prodrug to Parent in In Vitro Biorelevant Gastrointestinal Tract Media: The likely stability of prodrugs in the gastrointestinal tract can be estimated by incubating a prodrug in simulated gastric and intestinal fluids; compounds were measured for stability in simulated gastric fluid (SGF), fasted state simulated intestinal fluid (FaSSIF), and fasted state simulated intestinal fluid plus pancreatin (FaSSIF+pancreatin). Prodrug stock solutions were made by diluting 2 mg of compound in 200 μL DMSO. A 10 mg/mL Pancreatin in FaSSIF stock solution was made by dissolving 10 mg Pancreatin in 1 mL FaSSIF. Samples were prepared by diluting 10 μL of compound stock solution into 990 μL of biorelevant media (990 μL SGF, 990 μL FaSSIF, or 940 μL FaSSIF plus 50 μL Pancreatin stock) in a 2 mL HPLC vial and vortexing the mixture for a few seconds. The samples were incubated at 37° C. and aliquots were removed for up to 24 hours and injected directly on an HPLC to determine the conversion of prodrug to active drug. In the case of compound precipitation upon sample preparation, an individual sample was prepared for each desired time point and the entire sample was diluted with a known volume of acetonitrile/water (50/50) to ensure compound dissolution before HPLC analysis.

[3] = Solubility in biorelevant fasted state simulated intestinal fluid (FaSSIF); assay type: physicochemical; conditions: 25 °C, fassif, kinetic from dmso stock
Protocol: Solubility in Biorelevant Fasted State Simulated Intestinal Fluid (FaSSIF):
A 10 mM DMSO stock solution of compound to be tested is used. A 100 μM standard solution is generated by diluting 2.5 μL of the 10 mM stock solution with 247.5 μL of diluent (10% DMSO/10% MeCN/80% MeOH, v/v/v). A solubility solution is generated by diluting 5 μL of the 10 mM stock solution with 245 μL of FaSSIF (maximum solubility approximately 200 μM). […] The equilibrated solubility solution is filtered by centrifugation (3 minutes at 4000 rpm) using a 0.45 µm filter with a polypropylene membrane. The standard solution and the filtered equilibrated solubility solution are analyzed by HPLC/DAD. The solubility value is calculated by the following equation:
Solubility=(Peak area of sample/Peak area of standard)(Standard concentration)

[4] = recombinant human GST-Syk 5 pM, read-out: IC50

Row | IC50 [1, 4] | solubility ([3]; Solubility) | SMILES | further results
1 | 27.2 nM |  | Cc1cc(Nc2cc(C(F)F)ccn2)nc(-c2ccc([C@](C)(O)[C@H]3CC[C@H](C(=O)OCOC(=O)OCC4CCOCC4)CC3)nc2)c1 [Example 2-9, {[(tetrahydro-2H-pyran-4-ylmethoxy)carbonyl]oxy}methyl trans-4-[(1R)-1-(6-{[4-(difluoromethyl)pyridin-2-yl]amino}-4-methyl-2,3′-bipyridin-6′-yl)-1-hydroxyethyl]cyclo hexanecarboxylate] | Conversion in FaSSIF + Pancreatin, time ([2]; 3 h): 65%, 3 h; Conversion in FaSSIF, time ([2]; 5 h): 0%, 5 h; Conversion in SGF, time ([2]; 3 h): 2%, 3 h
2 | 7.3 nM |  | Cc1cc(Nc2cc(C(F)F)ccn2)nc(-c2ccc([C@](C)(O)[C@H]3CC[C@H](C(=O)Oc4ccc(C#N)cc4)CC3)nc2)c1 [Example 1-29, 4-cyanophenyl trans-4-[(1R)-1-(6-{[4-(difluoromethyl)pyridin-2-yl]amino}-4-methyl-2,3′-bipyridin-6′-yl)-1-hydroxyethyl] cyclohexanecarboxylate] | Conversion in FaSSIF + Pancreatin, time ([2]; 24 h): 44%, 24 h; Conversion in FaSSIF, time ([2]; 5 h): 0%, 5 h; Conversion in SGF, time ([2]; 5 h): 0%, 5 h
3 | 5.3 nM |  | Cc1cc(Nc2cc(C(F)F)ccn2)nc(-c2ccc([C@](C)(O)[C@H]3CC[C@H](C(=O)OCOC(=O)OCCOCCOCCOCCO)CC3)nc2)c1 [Example 2-4, 15-hydroxy-3-oxo-2,4,7,10,13-pentaoxapentadec-1-yl trans-4-[(1R)-1-(6-{[4-(difluoromethyl)pyridin-2-yl]amino}-4-methyl-2,3′-bipyridin-6′-yl)-1-hydroxyethyl]cyclo hexanecarboxylate] | Conversion in FaSSIF + Pancreatin, time ([2]; 3 h): 100%, 3 h; Conversion in FaSSIF, time ([2]; 24 h): 5%, 24 h; Conversion in SGF, time ([2]; 5 h): 0%, 5 h
4 | < 0.5 nM |  | CCOCCOC(=O)OCOC(=O)[C@H]1CC[C@H]([C@@](C)(O)c2ccc(-c3cc(C)cc(Nc4cc(C(F)F)ccn4)n3)cn2)CC1 [Example 2-6, {[(2-ethoxyethoxy)carbonyl]oxy}methyl trans-4-[(1R)-1-(6-{[4-(difluoromethyl)pyridin-2-yl]amino}-4-methyl-2,3′-bipyridin-6′-yl)-1-hydroxyethyl]cyclo hexanecarboxylate] | Conversion in FaSSIF + Pancreatin, time ([2]; 3 h): 95%, 3 h; Conversion in FaSSIF, time ([2]; 5 h): 0%, 5 h; Conversion in SGF, time ([2]; 5 h): 0%, 5 h
5 | < 0.5 nM | 176 µM | Cc1cc(Nc2cc(C(F)F)ccn2)nc(-c2ccc([C@](C)(O)[C@H]3CC[C@H](C(=O)OC[N+]4(C)CCC(CO)CC4)CC3)nc2)c1 (stereo partly drawn) [Example 5-29, 1-{[({trans-4-[(1R)-1-(6-{[4-(difluoromethyl)pyridin-2-yl]amino}-4-methyl-2,3′-bipyridin-6′-yl)-1-hydroxyethyl]cyclohexyl}carbonyl)oxy]methyl}-4-(hydroxymethyl)-1-methylpiperidinium] | 
6 | 4.8 nM | 160 µM (≈ 93.5 µg/mL) | Cc1cc(Nc2cc(C(F)F)ccn2)nc(-c2ccc([C@](C)(O)[C@H]3CC[C@H](C(=O)OCOC(=O)CCO)CC3)nc2)c1 [Example 3-9, [(3-hydroxypropanoyl)oxy] methyl trans-4-[(1R)-1-(6-{[4-(difluoromethyl)pyridin-2-yl]amino}-4-methyl-2,3′-bipyridin-6′-yl)-1-hydroxyethyl]cyclohexane carboxylate] | 
7 | 18.5 nM | 126 µM (≈ 75.2 µg/mL) | Cc1cc(Nc2cc(C(F)F)ccn2)nc(-c2ccc([C@](C)(O)[C@H]3CC[C@H](C(=O)OC[C@@H]4COC(C)(C)O4)CC3)nc2)c1 [Example 1-15, [(4S)-2,2-dimethyl-1,3-dioxolan-4-yl]methyl trans 4-[(1R)-1-(6-{[4-(difluoromethyl)pyridin-2-yl]amino}-4-methyl-2,3′-bipyridin-6′-yl)-1-hydroxyethyl] cyclohexanecarboxylate] | 
8 | 1.4 nM | 138 µM | CC[N+](CC)(CC)COC(=O)[C@H]1CC[C@H]([C@@](C)(O)c2ccc(-c3cc(C)cc(Nc4cc(C(F)F)ccn4)n3)cn2)CC1 [Example 5-10, N-{[({trans-4-[(1R)-1-(6-{[4-(difluoromethyl)pyridin-2-yl]amino}-4-methyl-2,3′-bipyridin-6′-yl)-1-hydroxyethyl]cyclohexyl}carbonyl)oxy]methyl}-N,N-diethylethanaminium] | 
9 | 2.3 nM | 200 µM | CC[N+]1(COC(=O)[C@H]2CC[C@H]([C@@](C)(O)c3ccc(-c4cc(C)cc(Nc5cc(C(F)F)ccn5)n4)cn3)CC2)CCCCC1 [Example 5-14, 1-{[({trans-4-[(1R)-1-(6-{[4-(difluoromethyl)pyridin-2-yl]amino}-4-methyl-2,3′-bipyridin-6′-yl)-1-hydroxyethyl]cyclohexyl}carbonyl)oxy]methyl}-1-ethylpiperidinium] | 
10 | 1 nM | 156 µM (≈ 101 µg/mL) | Cc1cc(Nc2cc(C(F)F)ccn2)nc(-c2ccc([C@](C)(O)[C@H]3CC[C@H](C(=O)OCOC(=O)OCC[S+](C)[O-])CC3)nc2)c1 (single isomer, unassigned) [Example 7-6] | 

The next lines start with the compound.

Row | SMILES | IC50 [1, 4] | solubility ([3]; Solubility) | further results
11 | Cc1cc(Nc2cc(C(F)F)ccn2)nc(-c2ccc([C@](C)(O)[C@H]3CC[C@H](C(=O)OCOP(=O)(O)O)CC3)nc2)c1 [Example 10-1, (Phosphonooxy)methyl trans-4-[(1R)-1-(6-{[4-(difluoromethyl)pyridin-2-yl]amino}-4-methyl-2,3′-bipyridin-6′-yl)-1-hydroxyethyl]cyclohexanecarboxylate] | < 0.5 nM |  | Conversion in FaSSIF + Pancreatin, time ([2]; 5 h): 50%, 5 h; Conversion in FaSSIF, time ([2]; 5 h): 20%, 5 h; Conversion in SGF, time ([2]; 5 h): 5%, 5 h
12 | CN[C@H]1CC[C@H](OC(=O)[C@H]2CC[C@H]([C@@](C)(O)c3ccc(-c4cc(C)cc(Nc5cc(C(F)F)ccn5)n4)cn3)CC2)CC1 [Example 1-24, trans-4-(methylamino)cyclohexyl trans-4-[(1R)-1-(6-{[4-(difluoromethyl)pyridin-2-yl]amino}-4-methyl-2,3′-bipyridin-6′-yl)-1-hydroxyethyl] cyclohexanecarboxylate] | 3.5 nM | 141 µM (≈ 83.7 µg/mL) | 
13 | Cc1cc(Nc2cc(C(F)F)ccn2)nc(-c2ccc([C@](C)(O)[C@H]3CC[C@H](C(=O)OC4CC5CCC(C4)N5)CC3)nc2)c1 (stereo partly drawn) [Example 1-18, 8-azabicyclo[3.2.1]oct-3-yl trans-4-[(1R)-1-(6-{[4-(difluoromethyl)pyridin-2-yl]amino}-4-methyl-2,3′-bipyridin-6′-yl)-1-hydroxyethyl] cyclohexanecarboxylate] | 2.7 nM |  | solubility ([3]; FaSSIF (fasted state simulated intestinal fluid), FaSSIF, equilibrated overnight at 25° C., maximum solubility approximately 200 μM, read-out: Solubility): 109 µM (≈ 64.5 µg/mL)
14 | Cc1cc(Nc2cc(C(F)F)ccn2)nc(-c2ccc([C@](C)(O)[C@H]3CC[C@H](C(=O)O)CC3)nc2)c1 [PrepEx 1-5, trans-4-[(1R)-(6-{[4-(Difluoromethyl)pyridin-2-yl]amino}-4-methyl-2,3′-bipyridin-6′-yl)-1-hydroxyethyl]cyclohexanecarboxylic acid] |  | < 3 µM | IC50 ([1]; IC50, recombinant human GST-Syk 5 pM): < 0.5 nM
15 | Cc1cc(Nc2cc(C(F)F)ccn2)nc(-c2ccc([C@](C)(O)[C@H]3CC[C@H](C(=O)O[C@H]4CC[C@@H](N)CC4)CC3)nc2)c1 [Example 1-2, cis-4-Aminocyclohexyl trans-4-[(1R)-1-(6-{[4-(difluoromethyl)pyridin-2-yl]amino}-4-methyl-2,3′-bipyridin-6′-yl)-1-hydroxyethyl]cyclohexanecarboxylate] | 4.2 nM | 114 µM (≈ 66.1 µg/mL) | 
16 | COCCN(C)C(=O)OC(C)OC(=O)[C@H]1CC[C@H]([C@@](C)(O)c2ccc(-c3cc(C)cc(Nc4cc(C(F)F)ccn4)n3)cn2)CC1 (single isomer, unassigned) [Example 4-1a] | 24.7 nM | 40 µM (≈ 25.7 µg/mL) | 
17 | Cc1cc(Nc2cc(C(F)F)ccn2)nc(-c2ccc([C@](C)(O)[C@H]3CC[C@H](C(=O)OC[N+](C)(C)CCOCCN(C)C)CC3)nc2)c1 [Example 5-23, N-{[({trans-4-[(1R)-1-(6-{[4-(difluoromethyl)pyridin-2-yl]amino}-4-methyl-2,3′-bipyridin-6′-yl)-1-hydroxyethyl]cyclohexyl}carbonyl)oxy]methyl}-2-[2-(dimethylamino)ethoxy]-N,N-dimethylethanaminium] | 1.1 nM | 98 µM | 
